One assay concerns the target T1, IKKε (Homo sapiens, UniProt Q14164).
T1 construct: His-tag; made in house; host or cells: Sf9 insect cells
T1 sequence (Q14164 1-716): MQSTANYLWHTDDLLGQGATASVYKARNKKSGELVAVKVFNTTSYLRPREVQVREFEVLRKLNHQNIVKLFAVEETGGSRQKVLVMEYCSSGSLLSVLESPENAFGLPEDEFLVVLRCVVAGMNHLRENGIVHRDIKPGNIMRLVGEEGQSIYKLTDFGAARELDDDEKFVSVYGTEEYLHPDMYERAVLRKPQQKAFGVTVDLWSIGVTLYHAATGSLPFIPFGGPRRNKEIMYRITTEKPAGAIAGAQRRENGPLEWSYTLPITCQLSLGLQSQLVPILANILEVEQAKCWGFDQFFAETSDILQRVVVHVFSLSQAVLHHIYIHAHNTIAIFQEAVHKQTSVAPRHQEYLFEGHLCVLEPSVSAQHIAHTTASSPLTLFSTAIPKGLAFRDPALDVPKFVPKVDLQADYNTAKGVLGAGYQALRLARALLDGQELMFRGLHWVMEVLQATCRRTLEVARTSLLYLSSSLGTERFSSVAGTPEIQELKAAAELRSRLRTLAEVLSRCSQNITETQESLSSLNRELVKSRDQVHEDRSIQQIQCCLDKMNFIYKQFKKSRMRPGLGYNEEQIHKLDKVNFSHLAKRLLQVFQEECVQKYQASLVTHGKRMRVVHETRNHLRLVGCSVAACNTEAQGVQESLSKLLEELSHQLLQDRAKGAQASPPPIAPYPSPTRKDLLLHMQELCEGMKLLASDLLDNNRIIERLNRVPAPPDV
The assay is described as follows: In-vitro IKKε kinase assay ([γ33]ATP filter-plate). It counts as biochemical. Summed up: (§1)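 Phosphorylation of casein or myelin basic protein was counted by P-81 filter capture after 30-45 min reactions stopped with phosphoric acid, with counts normalized to DMSO after background subtraction. ATP was twice Km: 60 μM for TBK1 and 32 μM for IKKε, plus [γ33]ATP. Sf9-expressed His-tag enzymes were used at normal/sensitized levels of 0.1/0.02 μg/ml (TBK1) and 0.1/0.015 μg/ml (IKKε).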

A further assay concerns the target T2, TBK1 (Homo sapiens, UniProt Q9UHD2).
T2 construct: His-tag; made in house; host or cells: Sf9 insect cells
T2 sequence (Q9UHD2 1-729): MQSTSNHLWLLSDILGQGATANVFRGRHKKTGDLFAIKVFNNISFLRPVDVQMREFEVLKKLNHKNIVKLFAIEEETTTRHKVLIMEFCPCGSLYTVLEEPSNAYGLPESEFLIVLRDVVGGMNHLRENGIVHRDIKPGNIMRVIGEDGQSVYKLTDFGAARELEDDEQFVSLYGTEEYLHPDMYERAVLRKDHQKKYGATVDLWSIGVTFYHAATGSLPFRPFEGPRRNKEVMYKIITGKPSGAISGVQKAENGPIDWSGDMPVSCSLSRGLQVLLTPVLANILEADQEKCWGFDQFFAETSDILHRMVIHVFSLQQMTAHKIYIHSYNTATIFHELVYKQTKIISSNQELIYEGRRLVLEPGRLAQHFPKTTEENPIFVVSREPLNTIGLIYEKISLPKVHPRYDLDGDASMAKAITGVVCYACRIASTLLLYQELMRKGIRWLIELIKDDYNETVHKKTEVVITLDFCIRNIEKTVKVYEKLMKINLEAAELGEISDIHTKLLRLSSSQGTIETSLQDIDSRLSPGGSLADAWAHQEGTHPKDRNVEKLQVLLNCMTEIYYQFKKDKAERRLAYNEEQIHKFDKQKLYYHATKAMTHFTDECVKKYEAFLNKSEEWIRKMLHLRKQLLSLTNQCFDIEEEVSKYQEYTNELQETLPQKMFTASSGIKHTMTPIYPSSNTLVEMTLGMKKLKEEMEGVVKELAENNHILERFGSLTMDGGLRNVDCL
In words: In-vitro TBK1 kinase assay ([γ33]ATP filter-plate). It counts as biochemical. Summed up:
as §1

Assay [1] concerns IKKε-mediated phosphorylation of IRF3. In words: In-situ phosphorylation of IRF3 (pIRF3 Ser396 ELISA) in HEK293T cells cotransfected with IRF3 and IKKε. It counts as cell-based. The note with it: Homo sapiens, HEK-293T. A digest of the protocol:
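Cells for the IRF7 Western blots carried IRF7 and TBK1 plasmids, were seeded at 150,000/well, exposed to compound overnight and probed for pSer477/Ser479 IRF7. The ELISA readout used IRF3 + IKKε-cotransfected HEK293T at 20,000/well with 20 h treatment, quantifying pSer396 IRF3 relative to DMSO, plus a parallel CellTiter-Glo viability check.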
Background: In an ELISA, binding on a coated surface is turned into a signal by an enzyme label.

Where [2] appears, read: text bins, read-out: IC50 for inhibition of the kinase activity of IKKε.
Setting [3] is: text bins, read-out: IC50 for inhibition of the kinase activity of TBK1.
[4] abbreviates: HEK293T cells, 20 hours, text bins, read-out: IC50 for inhibition of the in-situ IKKε-mediated phosphorylation of IRF3.
[5] abbreviates: HEK293T cells in culture, Table 3, read-out: pIRF3 ELISA IC50.

Drawing on US20150352108A1, “AMINO-PYRIMIDINE COMPOUNDS AS INHIBITORS OF TBK1 AND/OR IKK EPSILON” (Alzheimer's Institute of America, priority 2009, published 2015), this text covers IC50 for 16 molecules.

Each structure is given as a SMILES string. Like-named read-outs stand apart in the source and are kept apart here.

As for `CNS(=O)(=O)Cc1ccc(Nc2nccc(-c3ccc(OC4CCOCC4)c(C#N)c3)n2)cc1` [compound 413, 1-[4-({4-[3-cyano-4-(tetrahydro-2H-pyran-4-yloxy)phenyl]pyrimidin-2-yl}amino)phenyl]-N-methylmethane-sulfonamide], the IC50 (as a rule, the concentration needed to halve the response being measured) is below 5 nM on IKKε (setting [2]), below 10 nM on TBK1 (setting [3]) and below 100 nM in assay [1] (setting [4]).

For the molecule `COc1cc(Nc2nccc(-c3ccc(NC(=O)C(C)C)c(C#N)c3)n2)ccc1N1CCOCC1` [Example 75, N-[2-cyano-4-(2-{[3-methoxy-4-(morpholin-4-yl)phenyl]amino}pyrimidin-4-yl)phenyl]-2-methylpropanamide], the values for the concentration for half-maximal inhibition (IC50) (at IKKε (setting [2]); on TBK1 (setting [3]); in assay [1] (setting [4])) were below 5 nM, below 10 nM and 250 to 500 nM, respectively.

As to `COc1cc(Nc2nccc(-c3ccc(OC4CCOCC4)c(C#N)c3)n2)ccc1C(=O)N1CCN(C(C)C)CC1` [compound 503, 5-{2-[(3-methoxy-4-{[4-(propan-2-yl)piperazin-1-yl]carbonyl}phenyl)amino]pyrimidin-4-yl}-2-(tetrahydro-2H-pyran-4-yloxy)benzonitrile], the figures for the IC50 (on IKKε (setting [2]); at TBK1 (setting [3]); in assay [1] (setting [4])) were below 5 nM, below 10 nM and below 100 nM, respectively.

On to `COc1cc(Nc2nccc(-c3ccc(OC4CCOCC4)c(C#N)c3)n2)ccc1OCCOCCNS(=O)(=O)N1CCN(C)CC1` [Example 27, N-(2-{2-[4-({4-[3-cyano-4-(tetrahydro-2H-pyran-4-yloxy)phenyl]pyrimidin-2-yl}amino)-2-methoxyphenoxy]ethoxy}ethyl)-4-methylpiperazine-1-sulfonamide], for which the results for the IC50 (on IKKε (setting [2]); on TBK1 (setting [3]); in assay [1] (setting [4])) were below 5 nM, below 10 nM and 250 to 500 nM, respectively.

On to `COc1cc(-c2ccnc(Nc3ccc(N4CCOCC4)cc3)n2)cc(C#N)c1OC1CCN(C(=O)[C@@H](C)O)CC1` [compound 436, 2-({1-[(2R)-2-Hydroxypropanoyl]piperidin-4-yl}oxy)-3-methoxy-5-(2-{[4-(morpholin-4-yl)phenyl]amino}pyrimidin-4-yl)benzonitrile], for which the 50% inhibitory concentration (IC50) is below 5 nM at IKKε (setting [2]), below 10 nM at TBK1 (setting [3]) and below 100 nM in assay [1] (setting [4]).

On to `N#Cc1cc(-c2ccnc(Nc3cccc(NC(=O)N4CCOCC4)c3)n2)ccc1OC1CCOCC1` [compound 646, N-[3-({4-[3-Cyano-4-(tetrahydro-2H-pyran-4-yloxy)phenyl]pyrimidin-2-yl}amino)phenyl] morpholine-4-carboxamide], for which the concentration for half-maximal inhibition (IC50) at IKKε (Table 3, read-out: IKKε IC50) is 0.7 nM; at IKKε (setting [2]) it was below 5 nM; at TBK1 (Table 3, read-out: TBK1 IC50), 1.3 nM; on TBK1 (setting [3]) it was below 10 nM; in assay [1] (setting [5]), 30.9 nM; in assay [1] (setting [4]), below 100 nM.

For `N#Cc1cc(-c2ccnc(Nc3ccc(F)c(OCCCN4CCOCC4)c3)n2)ccc1OC1CCOCC1` [compound 519, 5-[2-({4-Fluoro-3-[3-(morpholin-4-yl)propoxy]phenyl}amino)pyrimidin-4-yl]-2-(tetrahydro-2H-pyran-4-yloxy)benzonitrile], the IC50 at IKKε (setting [2]) was below 5 nM; at TBK1 (setting [3]), below 10 nM; in assay [1] (setting [4]) it was below 100 nM.

On to `CCOC1CN(C(=O)c2ccc(Nc3nccc(-c4ccc(OC5CCOCC5)c(C#N)c4)n3)cc2OC)C1` [compound 599, 5-[2-({4-[(3-Ethoxyazetidin-1-yl)carbonyl]-3-methoxyphenyl}amino)pyrimidin-4-yl]-2-(tetrahydro-2H-pyran-4-yloxy)benzonitrile], for which the IC50 at IKKε (setting [2]) was below 5 nM; at TBK1 (setting [3]), below 10 nM; in assay [1] (setting [4]), below 100 nM.

On to `COc1cc(Nc2nccc(-c3ccc(OC4CCOCC4)c(C#N)c3)n2)ccc1C(=O)N1CC(N(C)C)C1` [compound 377, 5-{2-[(4-{[3-(dimethylamino)azetidin-1-yl]carbonyl}-3-methoxyphenyl)amino]pyrimidin-4-yl}-2-(tetrahydro-2H-pyran-4-yloxy)benzonitrile], for which the IC50 on IKKε (setting [2]) is below 5 nM; on TBK1 (setting [3]), below 10 nM; in assay [1] (setting [4]) it was 100 to 250 nM.

In the case of `N#Cc1cc(-c2ccnc(Nc3cccc(CN4CCC(O)C4)c3)n2)ccc1OC1CCOCC1` (stereo not drawn) [compound 561, 5-[2-({3-[(3-Hydroxypyrrolidin-1-yl)methyl]phenyl}amino)pyrimidin-4-yl]-2-(tetrahydro-2H-pyran-4-yloxy)benzonitrile], the IC50 on IKKε (Table 3, read-out: IKKε IC50) was 0.4 nM; on IKKε (setting [2]), below 5 nM; at TBK1 (Table 3, read-out: TBK1 IC50), 0.7 nM; at TBK1 (setting [3]) it was below 10 nM; in assay [1] (setting [5]) it was 56 nM; in assay [1] (setting [4]) it was below 100 nM.

Take `N#Cc1cc(-c2ccnc(Nc3ccc(N4CCOCC4)cc3)n2)ccc1OCC1CC1` [compound 438, 2-(cyclopropylmethoxy)-5-(2-{[4-(morpholin-4-yl)phenyl]amino}pyrimidin-4-yl)benzonitrile]: the figures for the IC50 (on IKKε (setting [2]); on TBK1 (setting [3]); in assay [1] (setting [4])) were below 5 nM, below 10 nM and below 100 nM, respectively.

Turning to `N#Cc1cc(-c2ccnc(Nc3ccc(N4CCOCC4)cc3)n2)ccc1OCC1CCNCC1` [Example 72, 5-(2-{[4-(morpholin-4-yl)phenyl]amino}pyrimidin-4-yl)-2-(piperidin-4-ylmethoxy) benzonitrile], the results for the concentration for half-maximal inhibition (IC50) (on IKKε (setting [2]); on TBK1 (setting [3]); in assay [1] (setting [4])) were below 5 nM, 10 to 100 nM and 250 to 500 nM, respectively.

As to `N#Cc1cc(-c2ccnc(Nc3ccc(CS(=O)(=O)N4CCN(CCO)CC4)cc3)n2)ccc1OC1CCOCC1` [compound 406, 5-(2-{[4-({[4-(2-Hydroxyethyl)piperazin-1-yl]sulfonyl}methyl)phenyl]amino}pyrimidin-4-yl)-2-(tetrahydro-2H-pyran-4-yloxy)benzonitrile], the IC50 was below 5 nM on IKKε (setting [2]), below 10 nM on TBK1 (setting [3]) and below 100 nM in assay [1] (setting [4]).

`CC(C)C(=O)Nc1ccc(-c2ccnc(Nc3ccc(CC(=O)N4CCN(C(C)C)CC4)cc3)n2)cc1C#N` [compound 418, N-(2-cyano-4-{2-[(4-{2-oxo-2-[4-(propan-2-yl)piperazin-1-yl]ethyl}phenyl)amino]pyrimidin-4-yl}phenyl)-2-methylpropanamide]: the IC50 at IKKε (setting [2]) was 5 to 50 nM; at TBK1 (setting [3]) it was below 10 nM; in assay [1] (setting [4]), below 100 nM.

In the case of `COc1cc(Nc2nccc(-c3ccc(OC4CCOCC4)c(C#N)c3)n2)ccc1N1CCOCC1` [Example 73, 5-(2-{[3-methoxy-4-(morpholin-4-yl)phenyl]amino}pyrimidin-4-yl)-2-(tetrahydro-2H-pyran-4-yloxy)benzonitrile], the values for the IC50 (at IKKε (setting [2]); at TBK1 (setting [3]); in assay [1] (setting [4])) were below 5 nM, below 10 nM and below 100 nM, respectively.

In the case of `COc1cc(Nc2nccc(-c3ccc(OC4CCOCC4)c(C#N)c3)n2)ccc1CN1C[C@@H](C)O[C@@H](C)C1` [compound 480, 5-{2-[(4-{[(2R,6S)-2,6-Dimethylmorpholin-4-yl]methyl}-3-methoxyphenyl)amino]pyrimidin-4-yl}-2-(tetrahydro-2H-pyran-4-yloxy)benzonitrile], the IC50 at IKKε (setting [2]) is below 5 nM; at TBK1 (setting [3]), below 10 nM; in assay [1] (setting [4]) it was below 100 nM.
